In patent US6586596B2, “Acetylcholine enhancers” (priority 1998, dated 2003):

Columns and labels:
[1] = test system: Cynomologous monkeys; experiment: Hepatotoxic analysis, four-week oral study; assay type: in vivo
Description: During the testing period, these animals were dosed with three different regimens: first, animals were dosed with 10 mg/kg/day for 7 days, followed by 32 days-washout period, second, animals were dosed with 5 mg/kg/day for 14 days, and thereafter the animals were dosed with 10 mg/kg/day for 7 days. The following parameters were examined: body weight, clinical signs, food consumption, blood biochemistry (GOT, GPT, ALP, LDH, γ-GTP, ChE, Bil, T.Pro, Alb, A/G ratio, T.Cho, NEFA, TG).

[2] = test system: extracellular levels of ACh in hippocampus; experiment: ACh release in hippocampus, microdialysis in freely moving rats; assay type: in vivo
Description: ACh content in perfusate obtained from hippocampus (Bregma, A: −5.8 mm, L: 5.0 mm, H: 4.0 mm) of brain were continuously detected by means of HPLC and ECD through the microdialysis system using freely moving rats (See Messamore and Kawashima, supra). After an equilibration period, five fractions were allowed to obtain basal ACh content. Test substances were injected i.p., and thereafter, microdialytic analysis was conducted for 3 hr.

[3] = test system: Cynomologous monkeys; experiment: Hepatotoxic analysis, two-week oral study; assay type: in vivo; settings: monkey, in vivo, po, 5 mg/kg/day
Source text: The following parameters were examined: body weight, clinical signs, food consumption, blood biochemistry (GOT, GPT, ALP, LDH, γ-GTP, ChE, Bil, T.Pro, Alb, A/G ratio, T.Cho, NEFA, TG). After the administration period, the animals were sacrificed and autopsied. Organs and tissues were weighed, then examined histopathologically.

[4] = test system: scopolamine-induced spatial learning deficit; experiment: Water maze, scopolamine-induced deficit in spatial learning; assay type: in vivo, rats; settings: p.o. 60 minutes before each trial; Cm.A 1.0 mg/kg/day; scopolamine 0.5 mg/kg i.p.
Description: A total of 6 trials (2 trials on 1st day, and 1 trial after 2nd day) were conducted to observe the effects of the test compounds. Scopolamine (0.5 mg/kg, i.p.) and the test compounds (p.o.) were administered 30 and 60 minutes before each trial, respectively.

[5] = test system: extracellular levels of ACh in striatum; experiment: ACh release in striatum, microdialysis in freely moving rats; assay type: in vivo
Description: ACh content in perfusate obtained from striatum (Bregma, A: 0.2 mm, L: 3.0 mm, H: 4.0 mm) of brain were continuously detected by means of HPLC and ECD through the microdialysis system using freely moving rats. See Messamore, E., et al, 32 Neuropharmacol. […] After an equilibration period of more than 2 hours, five fractions were allowed to obtain basal ACh content. Compounds were injected i.p., and thereafter, a microdialytic analysis was conducted for 3 hours.

[6] = test system: BF-lesioned rats; experiment: Water maze, BF lesion-induced deficit in spatial learning; settings: oral; Cm.A 0.3, 1.0 and 3.0 mg/kg/day, THA 1.0 mg/kg/day, E2020 0.3 and 1.0 mg/kg/day
Description: For each training trial, the rat was placed in the water (22° C.) such that the animal faced the wall of a circular pool (150 cm in diameter, 45 cm in height), and started at one of five starting points (selected randornly). In each trial, the latency period to escape onto the hidden platform (fixed in the middle of one quadrant, 2 cm below the surface of water) was recorded. These procedures were repeated once or twice a day during the experimental period.

[7] = molecular target: T1, peripheral 5-HT3 receptor (Rattus norvegicus, UniProt P35563); experiment: 5-HT-evoked von Bezold-Jarish Effect (B.J.E.) in anesthetized rats; assay type: in vivo; settings: Cm.A 3 to 10 mg/kg; for inhibition of 5-HT-evoked B.J.E. (reflex bradycardia): i.v. pretreatment, E2020 0.1~1 mg/kg, 5-HT 20 μg/kg i.v.; for blood pressure, heart rate and other signs: i.v., THA 10 mg/kg, E2020 higher than 1 mg/kg, data not shown
T1 construct: from tissue; host or cells: whole anesthetized rat (peripheral receptors)
T1 sequence (P35563 24-483): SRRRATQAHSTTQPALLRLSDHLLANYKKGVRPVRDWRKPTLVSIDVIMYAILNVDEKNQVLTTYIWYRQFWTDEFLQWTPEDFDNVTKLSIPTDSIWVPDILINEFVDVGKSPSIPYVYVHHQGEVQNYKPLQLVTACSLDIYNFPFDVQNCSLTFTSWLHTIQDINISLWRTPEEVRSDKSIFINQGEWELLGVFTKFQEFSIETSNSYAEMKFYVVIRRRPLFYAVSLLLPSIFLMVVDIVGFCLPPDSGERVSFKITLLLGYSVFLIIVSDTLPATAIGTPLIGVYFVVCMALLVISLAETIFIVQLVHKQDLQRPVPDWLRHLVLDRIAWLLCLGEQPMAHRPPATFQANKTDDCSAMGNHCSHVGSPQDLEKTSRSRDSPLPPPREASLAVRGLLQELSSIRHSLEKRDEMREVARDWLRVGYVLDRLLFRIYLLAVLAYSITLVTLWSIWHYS
Description: A bolus i.v. injection of serotonin (5-HT) (20 μg/kg) caused reflex bradycardia transiently (von Bezold—Jarish Effect: B.J.E.) via activation of peripheral 5-HT3 receptor in anesthetized rats.

[8] = molecular target: T2, 5-HT3 receptor (Mus musculus, UniProt P23979); experiment: serotonin 5-HT3 binding assay (NovaScreen), NIE-115 cells; settings: 20 mM HEPES pH 7.4, 150 mM NaCl, 25° C., 60 minutes
T2 construct: The receptor source was NIE-115 cells; host or cells: NIE-115 cells
T2 sequence (P23979 24-489): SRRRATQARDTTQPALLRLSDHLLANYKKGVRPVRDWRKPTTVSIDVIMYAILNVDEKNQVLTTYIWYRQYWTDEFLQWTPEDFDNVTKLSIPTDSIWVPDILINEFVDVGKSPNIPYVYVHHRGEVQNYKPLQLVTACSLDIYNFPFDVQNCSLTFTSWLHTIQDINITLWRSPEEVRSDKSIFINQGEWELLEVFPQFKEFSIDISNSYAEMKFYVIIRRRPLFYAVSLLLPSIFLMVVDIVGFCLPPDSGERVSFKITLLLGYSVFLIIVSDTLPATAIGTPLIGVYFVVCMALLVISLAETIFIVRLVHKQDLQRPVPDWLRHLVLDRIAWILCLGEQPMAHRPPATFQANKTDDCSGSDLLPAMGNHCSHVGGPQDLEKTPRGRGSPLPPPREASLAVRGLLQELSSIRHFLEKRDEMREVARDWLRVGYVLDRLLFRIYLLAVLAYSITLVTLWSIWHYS
Description: Binding affinity of a variety of compounds, including Cm.A, for the 5-HT3 receptor was investigated using a commercially available serotonin 5-HT3 binding assay (NovaScreen, Hanover, Md.). The receptor source was NIE-115 cells (See Lunnis, S. C. R. and Kilparick, G. J., 189: Evr. Jrnl. Pharmacol. 223 (1990); and Hoyer, D. and Heijt, H. C., 33 Mol. Pharmacol., 303 (1988)). The reference compound utilized was “MDL 72222,” a 5-HT3 receptor antagonist. Reactions were carried out in 20 mM HEPES (pH 7.4) containing 150 mM NaCl at 25° C. for 60 minutes. The reaction was terminated by rapid vacuum filtration onto glass fiber filters. Radioactivity trapped onto the filters was determined and compared with the control values.

SMILES | Blood biochemistry ([1]; F, oral, four weeks) | Clinical signs softstool ([1]; monkey, in vivo, po) | clinical signs ([1]; monkey, in vivo, po) | food consumption and body weight ([1]; monkey, in vivo, po) | blood biochemical tests ([1]; oral, four weeks) | increase of ACh content compared with Cm.A ([2]; hippocampus, i.p.) | centrally acting cholinergic symptoms (tremor, chewing and yawning) ([2]; rat, in vivo, ip) | Clinical signs softstool [3] | Clinical signs vomiting [3] | Food consumption [3] | deficit in spatial learning (escape latency) [4] | centrally acting cholinergic symptoms (tremor, chewing and yawning) ([5]; rat, in vivo, ip) | increase of ACh content compared with Cm.A ([5]; striatum, young rats, i.p.) | deficit of spatial learning (escape latency) [6] | inhibition of 5-HT-evoked B.J.E. (reflex bradycardia) [7] | blood pressure, heart rate and other signs [7] | IC50 ([8]; read-out: IC50) | Ki ([8]; read-out: Ki)
Nc1c2c(nc3ccccc13)CCCC2 [THA, 1,2,3,4-tetrahydro-9-acridinamine, reference compound] | ↓: CHE | +++ | severe vomiting and soft stools or diarrhea | decrease in body weight and food consumption | increase in TG and NEFA, decrease in ChE and T.Cho | somewhat weak | more apparent as compared with Cm.A | − | + | − | no significant effect | greater severity as compared with Cm.A | increased the ACh content more potently and long-lastingly than Cm.A | also improved this type of deficit | slight tendency to decrease the reflex | caused severe hypertension, salivation and tremor |  | 
COc1cc2c(cc1OC)C(=O)C(CC1CCN(Cc3ccccc3)CC1)C2 (stereo not drawn) [E2020, donepezil] |  |  |  |  |  |  |  |  |  |  |  |  |  | also improved this type of deficit | no inhibitory effect on B.J.E. | caused hypertension, salivation and tremor |  | 
CN1[C@@H]2CC[C@H]1C[C@@H](OC(=O)c1cc(Cl)cc(Cl)c1)C2 [MDL 72222] |  |  |  |  |  |  |  |  |  |  |  |  |  |  |  |  | 8.99 nM | 4.14 nM
